{
  "source": "patent US11446267B2",
  "about": "“Nanoparticle compositions, methods of fabrication, and use for drug delivery” (DIGNITY HEALTH, priority 2017, dated 2022)",
  "key": {"[1]": {"conditions": "chronic administration; cited from earlier work"}, "[2]": {"test_system": "ALS patients", "conditions": "subset of ALS patients, phase III study; cited from earlier work"}, "[3]": {"test_system": "MAPK signaling", "test": "MAPK signaling after direct injection into the striatum", "assay_type": "in vivo", "conditions": "injected directly into the striatum of healthy mice"}, "[4]": {"biological_target": "T1, RARα (Homo sapiens, UniProt P10276)", "T1 sequence (P10276 1-462)": "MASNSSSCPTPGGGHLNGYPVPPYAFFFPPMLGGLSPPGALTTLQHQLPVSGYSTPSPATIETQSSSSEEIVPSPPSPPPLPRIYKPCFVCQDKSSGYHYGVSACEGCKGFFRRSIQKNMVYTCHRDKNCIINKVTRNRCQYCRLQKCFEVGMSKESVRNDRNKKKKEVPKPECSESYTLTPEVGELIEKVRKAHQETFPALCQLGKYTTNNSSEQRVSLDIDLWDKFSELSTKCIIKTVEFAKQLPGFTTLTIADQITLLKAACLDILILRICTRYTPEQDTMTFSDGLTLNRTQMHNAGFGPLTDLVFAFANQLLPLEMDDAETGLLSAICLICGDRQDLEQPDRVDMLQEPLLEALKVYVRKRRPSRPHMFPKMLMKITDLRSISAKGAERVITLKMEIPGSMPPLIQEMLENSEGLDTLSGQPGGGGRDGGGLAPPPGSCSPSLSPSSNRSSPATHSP", "conditions": "cited from earlier work"}, "[5]": {"conditions": "cited from earlier work"}, "[6]": {"conditions": "in vivo; cited from earlier work"}, "[7]": {"test_system": "RXRs", "conditions": "cited from earlier work"}, "[8]": {"test_system": "primary motor neurons", "conditions": "oxidative injury and excitotoxicity; cited from earlier work"}, "[9]": {"biological_target": "T2, RARβ (Homo sapiens, UniProt P10826)", "T2 sequence (P10826 1-455)": "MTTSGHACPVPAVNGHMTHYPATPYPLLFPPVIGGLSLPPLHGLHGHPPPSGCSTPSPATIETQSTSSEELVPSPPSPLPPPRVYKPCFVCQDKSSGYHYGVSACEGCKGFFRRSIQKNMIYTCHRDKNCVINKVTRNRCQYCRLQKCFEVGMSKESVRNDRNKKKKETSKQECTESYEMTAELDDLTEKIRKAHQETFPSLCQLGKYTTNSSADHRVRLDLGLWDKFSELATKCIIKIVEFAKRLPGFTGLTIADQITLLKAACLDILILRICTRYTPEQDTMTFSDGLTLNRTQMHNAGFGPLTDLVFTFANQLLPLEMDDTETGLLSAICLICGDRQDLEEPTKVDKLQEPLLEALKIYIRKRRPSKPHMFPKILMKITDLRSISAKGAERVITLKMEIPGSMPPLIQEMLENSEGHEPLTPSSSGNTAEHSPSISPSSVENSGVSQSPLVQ", "conditions": "cited from earlier work"}},
  "data": [
    {"smiles": "C=C(c1ccc(C(=O)O)cc1)c1cc2c(cc1C)C(C)(C)CCC2(C)C", "note": "[bexarotene]", "values": [
      {"measurement": "motor impairments, lifespan, neuroprotection", "setting": "[1]", "value": "reduced motor impairments, increased lifespan and was neuroprotective"}
    ]},
    {"smiles": "CC1=NN(c2ccccc2)C(=O)C1", "note": "[Edaravone]", "values": [
      {"measurement": "disease progression", "setting": "[2]", "value": "reduce disease progression"}
    ]},
    {"smiles": "COc1ccc(-c2ccc3cc(C(=O)O)ccc3c2)cc1C12CC3CC(CC(C3)C1)C2", "note": "[Adapalene]", "values": [
      {"measurement": "activation of MAPK signaling", "setting": "[3]", "value": "equivalently activated MAPK signaling"},
      {"measurement": "AC50", "setting": "[4]", "value": 9.2, "unit": "nM"},
      {"measurement": "solubility in water", "setting": "[5]", "value": "less than 1 μg/ml"},
      {"measurement": "clearance from the plasma", "setting": "[6]", "value": "rapidly cleared from the plasma"},
      {"measurement": "interaction with RXRs", "setting": "[7]", "value": "does not interact"},
      {"measurement": "cell death", "setting": "[8]", "value": "reduced cell death"},
      {"measurement": "AC50", "setting": "[9]", "value": 2.2, "unit": "nM"}
    ]}
  ]
}
